“And” between values parts separate entries of the source, which are not always exact repeats. Identical values can stand only once.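 Five compound concentrations were applied to cells in 96-well plates for 48 hours; endpoints were derived by simple linear interpolation of the resulting dose-response curve. GI50 marks 50% less growth. TGI: concentration producing complete growth inhibition.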
Tests used:
Assay in all cases: growth of human tumour cells (NCI), 48 h
[1] = tested on: ACHN renal
[2] = tested on: T-47D breast
[3] = tested on: EKVX NSCLC
[4] = tested on: SR leukemia
[5] = tested on: IGROV1 ovarian
[6] = tested on: UO-31 renal
[7] = tested on: HT29 colon
[8] = tested on: KM12 colon
[9] = tested on: A498 renal
[10] = tested on: MOLT-4 leukemia

SMILES | GI50 [1] [µM] | TGI [1] [µM] | GI50 [2] [µM] | TGI [2] [µM] | GI50 [3] [µM] | TGI [3] [µM] | GI50 [4] [µM] | TGI [4] | GI50 [5] [µM] | TGI [5] [µM] | GI50 [6] [µM] | TGI [6] | GI50 [7] [µM] | TGI [7] [µM] | GI50 [8] [µM] | TGI [8] [µM] | GI50 [9] [µM] | TGI [9] | GI50 [10] [µM] | TGI [10] [µM]
[N-]=[N+]=CC(=O)OCC(N)C(=O)O (centres undefined) | 1.7 | > 100 | 12.4 | > 100 | 3.13 | > 100 | 0.638 | > 100 µM | 5.47 | > 100 | 4.92 | > 100 µM | 0.277 | > 100 | 0.58 | > 100 | 57.6 | > 100 µM | 0.638 | > 100
CO[C@H]1CC[C@@]2(C)C(=CC[C@H]3[C@@H]4C[C@H](O)C[C@@]4(C)CC[C@@H]32)C1 | 8.2 | 28.3 | 8.33 | 31.8 | 6.85 | 29 | 2.72 | 14.9 µM | 6.91 | 26.5 | 6.53 | 23.4 µM | 3.59 | 12.4 | 4.5 | 15.8 | 1.32 | 9.25 µM | 4.92 | 30.6
COC(=O)Nc1nc2ccc(Oc3ccc(NC(=O)Nc4cccc(Cl)c4)cc3)cc2[nH]1 | 2.23 | > 18.6 | 1.02 | 5.65 | 3.71 | > 25 | 0.144 | > 14.3 µM | 2.86 | 9.79 | 6.93 | > 21.4 µM | 0.682 | 3.48 | 0.147 | 3.8 | 1.64 | 13.8 µM | 2.35 | 18.8
COC(=O)C#Cc1ccc([N+](=O)[O-])cc1 |  | 2.9 |  | 11.4 |  | 3.48 |  | 1.07 µM |  | 3.92 |  | 2.85 µM |  | 3.23 |  | 3.9 |  | 22.6 µM |  | 2.88
CO[C@H](C(=O)N[C@@H](CCCCNC(=O)OCc1ccccc1)C(=O)OC(C)(C)C)[C@@H]1Cc2cc3cc(OC4CC(OC5CC(O)C(O)C(C)O5)C(O)C(C)O4)c(C)c(O)c3c(O)c2C(=O)[C@H]1OC1CC(OC2CC(OC3CC(C)(O)C(O)C(C)O3)C(O)C(C)O2)C(O)C(C)O1 (some centres undefined) | 0.67 | 4.45 | 0.958 | > 10 | 1.17 | 3.1 | 0.319 | > 10 µM | 0.449 | > 10 | 1.57 | 8.18 µM | 0.508 | > 10 | 0.603 | 2.05 | 0.64 | 2.03 µM | 0.381 | 2.73
Cc1ccc(C(=O)NC2CCCCC2)cc1-c1ccc(C(=O)NCC2CC2)cc1 | > 25 | > 25 | 9.51 | > 25 | > 19.4 | > 25 | > 25 | > 25 µM | > 25 | > 25 | > 19.9 | > 25 µM | > 25 | > 25 | > 22.5 | > 25 | 8.51 | > 25 µM | > 25 | > 25
Cn1cnc2c(NCc3ccccc3)nc(NCCO)nc21 | 92.7 | > 468 | 206 | > 408 | 57 | 170 | 69.1 | > 87 µM and 237 µM | 67.9 | 334 | 93.6 | > 96.2 µM and 420 µM | 83.6 | 336 | 62.1 | 344 | 28.8 | 83.3 µM and 311 µM | 103 | 356
CN(CCC(=O)O)S(=O)(=O)c1ccccc1 |  | > 100 |  | > 100 |  | > 100 |  | > 100 µM |  | > 100 |  | > 100 µM |  | > 100 |  | > 100 |  | > 100 µM |  | > 100
CCN(CC)CCOc1cc2c(C(=O)OC)c(C)oc2cc1C(C)=O | 5.65 | 18.3 | 2.25 | 7.75 | 8.75 | 22.1 | 2.58 | 6.72 µM | 8.53 | 33 | 22.5 | > 100 µM | 17 | 94.9 | 4.45 | 21.1 | 53 | > 100 µM | 3.02 | 7.5
COc1cnc2c(c1)C(=O)c1c-2n(CCCN2CCN(C)CC2)c(=O)c2cc(Cl)ccc12 | 0.783 | 14.3 | 22.8 | 98.7 | 7.73 | 31.9 | 0.584 | 27.3 µM | 10.4 | 87.1 | 3.74 | 22.8 µM | 1.37 | > 100 | 3.37 | 20.5 | 0.959 | 9.61 µM | 0.345 | 5.33
Nc1nccc(Nc2ccc(S(N)(=O)=O)cc2)n1 |  | > 100 |  | > 100 |  | > 100 |  | > 100 µM |  | > 100 |  | > 100 µM |  | > 100 |  | > 100 |  | > 100 µM |  | > 100
Cc1cc(C)nc(SC2=C(Nc3cccc(Cl)c3)C(=O)N(Cc3ccccc3)C2=O)n1 | > 170 | > 170 | > 170 | > 170 | > 170 | > 170 | > 170 | > 170 µM | > 170 | > 170 | > 170 | > 170 µM | > 170 | > 170 | > 170 | > 170 | > 170 | > 170 µM | > 170 | > 170
O=C(/C=C\Sc1nccc(C(F)(F)F)n1)c1ccc(Br)cc1 | 15.9 | 29.7 | 11.2 | 38.5 | 23.3 | 67.4 | 11.1 | 26.3 µM | 16.8 | 35.8 | 18.7 | 34 µM | 19.6 | 41.6 | 38.1 | > 100 | > 100 | > 100 µM | 4.44 | 16.2
O=C(O)CC1(C(=O)O)CCCCC1 |  | > 100 |  | > 100 |  | > 100 |  | > 100 µM |  | > 100 |  | > 100 µM |  | > 100 |  | > 100 |  | > 100 µM |  | > 100
O=C(Nc1ccc(Br)c(Cl)c1)c1cc(F)ccc1O | 0.61 | > 14.4 | 0.638 | 13.4 | 0.77 | 10 | 0.547 |  | 0.682 | > 50 | 0.153 | 1.89 µM | 1.71 | 8.35 | 1.36 | 5.23 | 0.162 | 1.03 µM | 0.943 | 2.81
CCCC(=O)NNc1[nH]c(-c2ccc(OC)cc2)cc1C(=O)OCC | 10.9 | 22.9 | 15.3 | 48.6 | 16.9 | 32.7 | 28.3 | > 100 µM | 21.2 | 39.5 | 19.9 | 37.8 µM | 17.4 | 34.3 | 37.7 | > 100 | 35.3 | > 100 µM | 6.52 | > 100
Cc1ccc2sc3c(NCCCNCCO)nc4ccccc4c3c(=O)c2c1 | 1.6 | 2.98 | 1.59 | 3.43 | 1.61 | 3.08 | 1.55 | 4.07 µM | 1.59 | 3.14 | 1.28 | 2.58 µM | 1.67 | 3.36 | 1.73 | 3.21 | 1.44 | 3.49 µM | 1.81 | 3.55
CC/C(=C(\CC)c1ccc(OCCN(CC)CC)cc1)c1ccc(OCCN(CC)CC)cc1 | 3.99 | 18.7 | 2.65 | 6.73 | 4.02 | 20.4 | 1.38 | 6.55 µM | 3.3 | 22.1 | 0.996 | 11.3 µM | 0.0759 | 3.78 | 2.01 | 12.6 | 0.76 | 3.31 µM | 3.62 | 18.2

Reference: PubChem BioAssay (NCI)
